Measured values taken from PMC8699718, “A structurally conserved site in AUP1 binds the E2 enzyme UBE2G2 and is essential for ER-associated degradation” (PLoS Biology, 2021).
Ends that are not written are not given here.

B1: UBE2G2: ERAD ubiquitin-conjugating enzyme (E2); purified in vitro, N-terminally MYC-tagged in cells (protein)
chain: MAGTALKRLMAEYKQLTLNPPEGIVAGPMNEENFFEWEALIMGPEDTCFEFGVFPAILSFPLDYPLSPPKMRFTCEMFHPNIYPDGRVCISILHAPGDDPMGYESSAERWSPVQSVEKILLSVVSMLAEPNDESGANVDASKMWRDDREQFYKIAKQIVQKSLGL

System: NHK (Null Hong Kong variant of alpha1-antitrypsin)
Assay: CHX chase: NHK degradation in HT1080 AUP1 KO cells
Assay type: cell-based, human
Description: Fig 1 The G2BR of AUP1 is required for ERAD of NHK. (A) HT1080 or cells in which HRD1 was knocked out by CRISPR/Cas-9 (HRD1 KO) were transfected with plasmid encoding carboxyl-terminally HA-tagged NHK. Cells were treated with CHX for the indicated times to inhibit protein synthesis and NHK-HA degradation monitored by western blot. GFP and HSP60 serve as transfection efficiency and gel loading controls, respectively. (B) HT1080 or cells in which either AUP1 or gp78 was knocked out (AUP1 KO or gp78 KO) were transfected with NHK-HA and their degradation assessed. (C) AUP1 KO cells were transfected with NHK-HA and empty vector or plasmid encoding carboxyl-terminally FLAG-tagged AUP1 and NHK degradation assessed. (D) Indicated cells were transfected with plasmid encoding carboxyl-terminally MYC-tagged INSIG-1 and assessed for INSIG-1 degradation. (E) Schematic representation of AUP1 in the ER membrane and deletion mutants used in subsequent experiments. Amino acid residues are numbered spanning each domain. (F) AUP1 KO cells were transfected with NHK-HA and plasmids encoding the indicated FLAG-tagged AUP1 WT or deletion mutants and assessed for NHK degradation. (G) HEK293 (Parental) or HEK293 AUP1 KO cells were assessed for degradation of NHK-HA. (H) HEK293 AUP1 KO cells were assessed for NHK-HA degradation as in (F). Markers represent apparent molecular weight in kDa. The data underlying this figure can be found in S1 Data. aa, amino acid; AUP1, ancient ubiquitous protein 1; CHX, cycloheximide; ER, endoplasmic reticulum; ERAD, endoplasmic reticulum–associated degradation; G2BR, UBE2G2 Binding Region; KO, knockout; NHK, Null Hong Kong; WT, wild type.
Fig 6 Disruption of UBE2G2:G2BR^AUP1 interaction abrogates AUP1 function in cells. (A) GST or indicated GST-AUP1 fusions (aa 292 to 410, expression shown in Coomassie-stained gel) were immobilized on glutathione beads and binding to ^35S-UBE2G2 was assessed as in Fig 3A. Mutations include 2A (R382A/Q383A), 2E (R382E/Q383E), and 5E (R382E/Q383E/K390E/R398E/R400E). (B) AUP1 KO cells were transfected with NHK-HA and forms of full-length AUP1-FLAG with the indicated point mutations from (A) and NHK degradation assessed by CHX chase. (C) Binding assay performed as in (A) with AUP1 mutants predicted to disrupt hydrophobic interactions with UBE2G2. (D) Cellular assay performed as in (B) with AUP1-FLAG mutants that disrupt interactions with UBE2G2 in vitro in (C). The data underlying this figure can be found in S1 Data. aa, amino acid; AUP1, ancient ubiquitous protein 1; CHX, cycloheximide; G2BR, UBE2G2 Binding Region; KO, knockout; WT, wild type.
Fig 8 Recruitment of UBE2G2 to the ER membrane and activation by G2BR^AUP1 is required for ERAD. (A) HT1080 or AUP1 KO cells were transfected with NHK-HA and either empty vector or MYC-UBE2G2 and NHK turnover assessed by CHX chase. (B) AUP1 KO cells were transfected with NHK-HA and GFP fusions of either a scrambled G2BR sequence (SCR) or G2BR^AUP1 and NHK turnover and levels of endogenous UBE2G2 assessed. Luciferase and β-actin served as transfection efficiency and gel loading controls, respectively. (C) AUP1 KO cells were transfected with NHK-HA, MYC-UBE2G2, and either GFP-SCR or GFP-G2BR^AUP1 and NHK turnover assessed. (D) Membrane fractionation was performed on HT1080 or AUP1 KO cells transfected with either empty vector or AUP1-FLAG and localization of UBE2G2 assessed by western blotting. Localization of β-actin (cytosol) and Calnexin (ER membrane) were used as controls for cytosolic (C) and membrane (M) fractions, respectively. (E) Membrane fractionation of AUP1 KO cells transfected with either MYC-UBE2G2 or TM-UBE2G2. (F) HT1080 cells were transfected with TM-UBE2G2 and its localization assessed by confocal microscopy. Images shown are from an optical section after deconvolution. HA-tagged UBE2J2, an ER-localized E2, serves as an ER marker. […]

| Molecule | NHK degradation, soluble G2BR alone (GFP fusion overexpressed without UBE2G2, HT1080 AUP1 KO) | NHK degradation, soluble G2BR with UBE2G2 (GFP-G2BR^AUP1 co-expressed with MYC-UBE2G2, HT1080 AUP1 KO) | NHK degradation, soluble G2BR with TM-UBE2G2 (GFP-G2BR^AUP1 co-expressed with TM-UBE2G2, HT1080 AUP1 KO) | NHK degradation, UBE2G2 overexpression (UBE2G2 form transfected without G2BR, HT1080 AUP1 KO) |
| --- | --- | --- | --- | --- |
| GFP-G2BR^AUP1: GFP fusion of AUP1 aa 378 to 404 (SSWARQESLQERKQALYEYARRRFTER; also: GFP fusion; UniProt Q9Y679 378-404, looked up, fragment) | insufficient to reconstitute NHK degradation | did not restore NHK degradation | fully restored | – |
| B1 | – | – | – | did not restore NHK degradation |
